What all share (format): binding
Details in all cases: His-tagged TEAD protein, biotinylated lipid pocket probe

One assay addresses TEAD3 (Homo sapiens, UniProt Q99594). The assay is described as follows: TEAD lipid pocket TR-FRET (Lipid HTRF) competition assay, TEAD3. As for the experimental part: (§1) His-tagged TEAD proteins are pre-incubated with TEAD project compounds for 30 minutes at room temperature. Biotinylated lipid pocket probes are then added to the TEAD/Compound mixture and incubated for 60 minutes at room temperature. The lipid pocket probe competes with the test compound for the TEAD lipid pocket until equilibrium is reached. After 60 minutes, Europium labelled anti-His (Perkin Elmer #ADO 110) and XL665 labelled streptavidin (CIS Bio 610SAXAC) are added to the TEAD/test compound/lipid pocket mixture and incubated for 30 minutes. TR-FRET values are then measured using an EnVision multi-label plate reader (Perkin Elmer Cat #2104-1A.) If the lipid pocket probe binds to TEAD as expected, a TR-FRET signal results from the proximity of Tani-His Eu and XL665. If a TEAD lipid pocket binder such as binds and displaces the lipid pocket probe, the disruption of the TEAD:probe interaction results in a decrease in TR-FRET signal. The potency of compounds as TEAD lipid pocket binders is determined by IC50 value generated using a non-linear 4 parameter curve fit. This assay format enables more sensitive determinations of lipid pocket affinity than the aforementioned TEAD lipid pocket FP assay due to the decreased concentration of TEAD protein required for the TR-FRET assay format.

The next assay deals with TEAD4 (Homo sapiens, UniProt Q15561). Description: TEAD lipid pocket TR-FRET (Lipid HTRF) competition assay, TEAD4. The protocol: as §1
In the next assay the target is TEAD1 (Homo sapiens, UniProt P28347). Description: TEAD lipid pocket TR-FRET (Lipid HTRF) competition assay, TEAD1. As for the experimental part:
as §1

For a further assay, the target named is TEAD2 (Homo sapiens, UniProt Q15562). Description: TEAD lipid pocket TR-FRET (Lipid HTRF) competition assay, TEAD2. As for the experimental part: as §1

The values below come from US12643880B2, “Heterobifunctional molecules as TEAD inhibitors” (Genentech, Inc., priority 2020, dated 2026).

Structures can show the parent of a compound that is named as a salt.

Sequence of TEAD1 (P28347 whole entry, species assumed): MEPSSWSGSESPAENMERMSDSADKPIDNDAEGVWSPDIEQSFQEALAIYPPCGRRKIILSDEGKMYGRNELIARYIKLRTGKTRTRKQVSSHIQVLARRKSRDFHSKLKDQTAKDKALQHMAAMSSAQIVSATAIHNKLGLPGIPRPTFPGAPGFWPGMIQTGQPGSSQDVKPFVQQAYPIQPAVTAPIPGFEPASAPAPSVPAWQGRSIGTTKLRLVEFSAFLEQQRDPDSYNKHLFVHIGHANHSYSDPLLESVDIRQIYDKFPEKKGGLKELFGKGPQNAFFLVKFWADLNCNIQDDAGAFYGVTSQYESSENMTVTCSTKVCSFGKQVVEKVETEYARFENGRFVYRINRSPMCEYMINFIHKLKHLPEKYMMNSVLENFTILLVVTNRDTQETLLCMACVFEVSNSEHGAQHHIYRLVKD
Sequence of TEAD4 (Q15561 whole entry, species assumed): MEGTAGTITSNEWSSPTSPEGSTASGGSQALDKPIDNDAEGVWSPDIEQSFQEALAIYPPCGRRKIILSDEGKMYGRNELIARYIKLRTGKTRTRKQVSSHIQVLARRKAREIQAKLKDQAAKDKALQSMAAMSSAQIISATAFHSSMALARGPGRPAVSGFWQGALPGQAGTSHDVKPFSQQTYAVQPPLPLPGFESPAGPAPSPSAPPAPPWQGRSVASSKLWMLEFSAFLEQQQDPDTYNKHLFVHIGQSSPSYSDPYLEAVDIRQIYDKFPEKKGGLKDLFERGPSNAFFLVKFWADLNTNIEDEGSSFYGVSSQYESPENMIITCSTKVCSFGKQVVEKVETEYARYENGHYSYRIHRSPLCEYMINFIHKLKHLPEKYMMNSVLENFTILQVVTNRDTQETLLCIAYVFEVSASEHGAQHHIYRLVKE
Sequence of TEAD2 (Q15562 whole entry, species assumed): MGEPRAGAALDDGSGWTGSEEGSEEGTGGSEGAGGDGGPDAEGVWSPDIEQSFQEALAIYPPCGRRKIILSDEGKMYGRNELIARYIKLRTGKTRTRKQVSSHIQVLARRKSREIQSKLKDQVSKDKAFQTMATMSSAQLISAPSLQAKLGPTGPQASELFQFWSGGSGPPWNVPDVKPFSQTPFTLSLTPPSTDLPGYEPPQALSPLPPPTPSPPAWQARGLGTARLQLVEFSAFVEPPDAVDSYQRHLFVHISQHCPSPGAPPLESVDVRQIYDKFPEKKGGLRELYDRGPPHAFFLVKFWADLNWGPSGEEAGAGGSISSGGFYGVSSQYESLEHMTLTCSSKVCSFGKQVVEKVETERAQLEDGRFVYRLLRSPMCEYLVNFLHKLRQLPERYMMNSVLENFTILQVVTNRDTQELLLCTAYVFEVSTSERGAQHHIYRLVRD
Sequence of TEAD3 (Q99594 whole entry, species assumed): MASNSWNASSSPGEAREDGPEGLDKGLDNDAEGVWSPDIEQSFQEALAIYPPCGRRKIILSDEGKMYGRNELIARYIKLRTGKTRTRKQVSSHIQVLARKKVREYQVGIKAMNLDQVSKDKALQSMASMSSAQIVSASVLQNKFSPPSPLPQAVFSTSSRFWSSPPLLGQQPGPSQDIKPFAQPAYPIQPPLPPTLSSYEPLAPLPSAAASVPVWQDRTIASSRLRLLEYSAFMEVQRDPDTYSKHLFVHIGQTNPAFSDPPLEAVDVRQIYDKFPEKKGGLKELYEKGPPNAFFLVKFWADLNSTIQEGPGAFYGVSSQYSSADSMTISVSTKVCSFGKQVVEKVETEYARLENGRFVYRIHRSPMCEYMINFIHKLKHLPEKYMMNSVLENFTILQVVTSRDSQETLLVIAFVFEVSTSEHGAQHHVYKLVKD

For `COc1cnc(C(=O)NCc2cccc(CC(=O)NCCOCCOCCOCCOCCOCC(=O)N[C@H](C(=O)N3C[C@H](O)C[C@H]3C(=O)NCc3ccc(-c4scnc4C)cc3)C(C)(C)C)c2)cc1/C=C/[C@H]1CC[C@H](C(F)(F)F)CC1` [Compound 17, N-(3-((S)-22-((2S,4R)-4-Hydroxy-2-((4-(4-methylthiazol-5-yl)benzyl)carbamoyl)pyrrolidine-1-carbonyl)-23,23-dimethyl-2,20-dioxo-6,9,12,15,18-pentaoxa-3,21-diazatetracosyl)benzyl)-5-methoxy-4-((E)-2-(trans-4-(trifluoromethyl)cyclohexyl)vinyl)picolinamide], the IC50 came to 1500 nM on TEAD3, 40 nM at TEAD4, 280 nM on TEAD1 and 90 nM on TEAD2.

In the case of `CN[C@@H](C)C(=O)N[C@H](C(=O)N1CCC[C@H]1C(=O)Nc1sc(NC(=O)COCCOCCOCCOCCN(C)C(=O)Cc2cccc(CNC(=O)c3cc(/C=C/[C@H]4CC[C@H](C(F)(F)F)CC4)c(OC)cn3)c2)nc1-c1ccccc1)C1CCCCC1` [Compound 18, N-(3-(17-((5-((S)-1-((S)-2-Cyclohexyl-2-((S)-2-(methylamino)propanamido)acetyl)pyrrolidine-2-carboxamido)-4-phenylthiazol-2-yl)amino)-3-methyl-2,17-dioxo-6,9,12,15-tetraoxa-3-azaheptadecyl)benzyl)-5-methoxy-4-((E)-2-(trans-4-(trifluoromethyl)cyclohexyl)vinyl)picolinamide], the IC50 was found to be 4800 nM at TEAD3, 140 nM at TEAD4, 600 nM at TEAD1 and 490 nM at TEAD2.

For the compound `CN[C@@H](C)C(=O)N[C@H](C(=O)N1CCC[C@H]1C(=O)Nc1sc(NC(=O)COCCOCCOCCOCCOCCN(C)C(=O)Cc2cccc(CNC(=O)c3cc(/C=C/[C@H]4CC[C@H](C(F)(F)F)CC4)c(OC)cn3)c2)nc1-c1ccccc1)C1CCCCC1` [Compound 19, N-(3-(20-((5-((S)-1-((S)-2-Cyclohexyl-2-((S)-2-(methylamino)propanamido)acetyl)pyrrolidine-2-carboxamido)-4-phenylthiazol-2-yl)amino)-3-methyl-2,20-dioxo-6,9,12,15,18-pentaoxa-3-azaicosyl)benzyl)-5-methoxy-4-((E)-2-(trans-4-(trifluoromethyl)cyclohexyl)vinyl)picolinamide], the IC50 was 4100 nM at TEAD3, 140 nM at TEAD4, 540 nM on TEAD1 and 360 nM on TEAD2.

Take `CN[C@@H](C)C(=O)N[C@H](C(=O)N1CCC[C@H]1C(=O)Nc1sc(NC(=O)COCCOCCOCCOCCOCCOCCN(C)C(=O)Cc2cccc(CNC(=O)c3cc(/C=C/[C@H]4CC[C@H](C(F)(F)F)CC4)c(OC)cn3)c2)nc1-c1ccccc1)C1CCCCC1` [Compound 20, N-(3-(23-((5-((S)-1-((S)-2-Cyclohexyl-2-((S)-2-(methylamino)propanamido)acetyl)pyrrolidine-2-carboxamido)-4-phenylthiazol-2-yl)amino)-3-methyl-2,23-dioxo-6,9,12,15,18,21-hexaoxa-3-azatricosyl)benzyl)-5-methoxy-4-((E)-2-(trans-4-(trifluoromethyl)cyclohexyl)vinyl)picolinamide formate]: the IC50 on TEAD3 was found to be 4300 nM; at TEAD4, 130 nM; at TEAD1, 510 nM; on TEAD2, 340 nM.

In the case of `CN[C@@H](C)C(=O)N[C@H](C(=O)N1CCC[C@H]1C(=O)Nc1sc(NC(=O)CCCN(C)C(=O)Cc2cccc(CNC(=O)c3cc(/C=C/[C@H]4CC[C@H](C(F)(F)F)CC4)c(OC)cn3)c2)nc1-c1ccccc1)C1CCCCC1` [Compound 21, N-(3-(2-((4-((5-((S)-1-((S)-2-Cyclohexyl-2-((S)-2-(methylamino)propanamido)acetyl)pyrrolidine-2-carboxamido)-4-phenylthiazol-2-yl)amino)-4-oxobutyl)(methyl)amino)-2-oxoethyl)benzyl)-5-methoxy-4-((E)-2-(trans-4-(trifluoromethyl)cyclohexyl)vinyl)picolinamide], the concentration for half-maximal inhibition (IC50) amounted to 6200 nM at TEAD3, 430 nM at TEAD4, 1300 nM on TEAD1 and 1000 nM on TEAD2.
